In PubChem BioAssay AID330 (DTP/NCI, 2004) one finds T/C data, which are given here for 20 molecules.

The structures appear in SMILES notation. Where “and” joins values, the source holds several entries; their conditions need not be identical. Equal entries are not always repeated. Inconclusive results and toxic doses are left out.

The subject of this test is P388 leukemia ip, CD2F1 mice, survival T/C. Briefly: NCI In Vivo Anticancer Drug Screen. Data for tumor model P388 Leukemia (intraperitoneal) in CD2F1 (CDF1) mice. Particulars: endpoint: median survival time, higher = longer survival. The essentials:
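Mice carrying the transplanted tumor received test compound or vehicle. Survival was recorded in each group, and the value is the treated-group measurement divided by that of the vehicle-treated control group.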

The mark [1] stands for this setting: dose: 100.0 mg/kg/injection, schedule: Q01DX009 (ip), vehicle: saline with Tween-80.
[2] abbreviates: dose: 200.0 mg/kg/injection, schedule: Q01DX009 (ip), vehicle: saline with Tween-80.
Where [3] appears, read: dose: 400.0 mg/kg/injection, schedule: Q01DX009 (ip), vehicle: saline with Tween-80.
Where [4] appears, read: dose: 50.0 mg/kg/injection, schedule: Q01DX005 (ip), vehicle: saline with Tween-80.
Setting [5] is: dose: 100.0 mg/kg/injection, schedule: Q01DX005 (ip), vehicle: saline with Tween-80.
[6] abbreviates: dose: 200.0 mg/kg/injection, schedule: Q01DX005 (ip), vehicle: saline with Tween-80.
[7] abbreviates: dose: 12.5 mg/kg/injection, schedule: Q01DX009 (ip), vehicle: saline.
Setting [8] is: dose: 50.0 mg/kg/injection, schedule: Q01DX005 (ip), vehicle: Klucel (hydroxypropylcellulose) (HPC).
[9] abbreviates: dose: 100.0 mg/kg/injection, schedule: Q01DX005 (ip), vehicle: Klucel (hydroxypropylcellulose) (HPC).
Setting [10] is: dose: 200.0 mg/kg/injection, schedule: Q01DX005 (ip), vehicle: Klucel (hydroxypropylcellulose) (HPC).

As for `O=C(/C=C(\NC1CCCCC1)C(=O)c1ccccc1)c1ccccc1`, the T/C was 90 % of control under setting [1], 90 % of control under setting [2] and 100 % of control under setting [3].

Consider `Nc1nnc(CCC(=O)Nc2cccc(C(F)(F)F)c2)n1N`, for which the T/C was 107 % of control under setting [4], 105 % of control under setting [5] and 90 % of control under setting [6].

Take `COc1ccc2c(=O)cc(-c3ccccc3)[nH]c2c1`: the T/C was 90 % of control under setting [7]; 98 % of control (dose: 25.0 mg/kg/injection, schedule: Q01DX009 (ip), vehicle: saline); 114 % of control (dose: 50.0 mg/kg/injection, schedule: Q01DX009 (ip), vehicle: saline); 118 % of control (dose: 65.0 mg/kg/injection, schedule: Q01DX009 (ip), vehicle: saline); 117 % of control and 118 % of control (dose: 100.0 mg/kg/injection, schedule: Q01DX009 (ip), vehicle: saline); 99 % of control (dose: 200.0 mg/kg/injection, schedule: Q01DX009 (ip), vehicle: saline).

With `O=S(=O)(/C=C\c1ccccc1)/C=C/c1ccc(F)cc1`, the T/C is 111 % of control under setting [4], 97 % of control under setting [5] and 94 % of control under setting [6].

Regarding `Cc1cc(C)[nH]c(=O)c1`, the T/C was 100 % of control under setting [1], 100 % of control under setting [2] and 109 % of control under setting [3].

Consider `CSC1=NN(C(C)=O)C(c2ccccn2)S1` (stereo not given), for which the T/C by setting is: under setting [8], 100 % of control; under setting [9], 100 % of control; under setting [10], 101 % of control.

On to `CCCCCCCCCCCC[N+]1(CC)CCOCC1`, for which the T/C was 106 % of control (dose: 3.12 mg/kg/injection, schedule: Q01DX009 (ip), vehicle: saline); 101 % of control (dose: 6.25 mg/kg/injection, schedule: Q01DX009 (ip), vehicle: saline); 101 % of control under setting [7].

As to `COC1/C=C/OC2(C)Oc3c(C)c(O)c4c(O)c(c(/C=N/N5C(C)CN(Cc6ccc([N+](=O)[O-])cc6)CC5C)c(O)c4c3C2=O)NC(=O)/C(C)=C\C=C\C(C)C(O)C(C)C(O)C(C)C(OC(C)=O)C1C` (stereo not given), the T/C reads like this: (dose: 25.0 mg/kg/injection, schedule: Q01DX009 (ip), vehicle: saline with Tween-80) 100 % of control; (dose: 25.0 mg/kg/injection, schedule: Q01DX009 (ip), vehicle: suspension in saline) 103 % of control; (dose: 50.0 mg/kg/injection, schedule: Q01DX009 (ip), vehicle: saline with Tween-80) 104 % of control and 119 % of control; (dose: 50.0 mg/kg/injection, schedule: Q01DX009 (ip), vehicle: suspension in saline) 103 % of control; under setting [1], 119 % of control; (dose: 100.0 mg/kg/injection, schedule: Q01DX009 (ip), vehicle: suspension in saline) 108 % of control. Also, the T/C (dose: 200.0 mg/kg/injection, schedule: Q01DX009 (ip), vehicle: suspension in saline) was 119 % of control.

With `CC1CC(O)C(=O)C2(C)C1CC1OC(=O)CC3C(C)C(=O)C(O)C2C13` (stereo not given), the T/C runs as follows: under setting [4], 100 % of control; under setting [5], 104 % of control; under setting [6], 99 % of control.

Regarding `O=C(CC(=O)Nc1ccccc1)Cc1ccccc1`, the T/C reads like this: (dose: 50.0 mg/kg/injection, schedule: Q01DX009 (ip), vehicle: Klucel (hydroxypropylcellulose) (HPC)) 102 % of control; (dose: 100.0 mg/kg/injection, schedule: Q01DX009 (ip), vehicle: Klucel (hydroxypropylcellulose) (HPC)) 97 % of control; (dose: 200.0 mg/kg/injection, schedule: Q01DX009 (ip), vehicle: Klucel (hydroxypropylcellulose) (HPC)) 99 % of control.

Take `CC(=O)Nc1nnc(-c2cc(=O)c3cc(Cl)ccc3o2)s1`: the T/C runs as follows: under setting [4], 101 % of control; under setting [5], 92 % of control; under setting [6], 97 % of control.

Take `O=C(NCCCCCCNC(=O)C1CCCN1)C1CCCN1` (stereo not given): the T/C was 103 % of control (dose: 15.0 mg/kg/injection, schedule: Q01DX005 (ip), vehicle: saline); 96 % of control (dose: 30.0 mg/kg/injection, schedule: Q01DX005 (ip), vehicle: saline); 100 % of control and 97 % of control (dose: 60.0 mg/kg/injection, schedule: Q01DX005 (ip), vehicle: saline).

With `Cc1c2cnccc2c(CO)c2[nH]c3ccccc3c12`, the T/C runs as follows: (dose: 12.5 mg/kg/injection, schedule: Q04DX002 (ip), vehicle: saline with Tween-80) 119 % of control; (dose: 100.0 mg/kg/injection, schedule: Q04DX002 (ip), vehicle: saline with Tween-80) 163 % of control.

Take `COc1ccc2c(c1)CCc1cn[nH]c1-2`: the T/C is, setting by setting: under setting [8], 93 % of control; under setting [9], 92 % of control; under setting [10], 93 % of control.

With `c1ccc(P2(c3ccccc3)(c3ccccc3)C3C4C5C6C4C2C6C53)cc1` (stereo not given), the T/C runs as follows: (dose: 50.0 mg/kg/injection, schedule: Q01DX001 (ip), vehicle: saline with Tween-80) 109 % of control; (dose: 100.0 mg/kg/injection, schedule: Q01DX001 (ip), vehicle: saline with Tween-80) 104 % of control; (dose: 200.0 mg/kg/injection, schedule: Q01DX001 (ip), vehicle: saline with Tween-80) 113 % of control.

Turning to `COC(=O)C1=C(C(=O)OC)C2OC1c1cc3ccccc3cc12`, the T/C by setting is: (dose: 7.5 mg/kg/injection, schedule: Q01DX005 (ip), vehicle: saline with Tween-80) 113 % of control; (dose: 15.0 mg/kg/injection, schedule: Q01DX005 (ip), vehicle: saline with Tween-80) 113 % of control; (dose: 30.0 mg/kg/injection, schedule: Q01DX005 (ip), vehicle: saline with Tween-80) 108 % of control; (dose: 60.0 mg/kg/injection, schedule: Q01DX005 (ip), vehicle: saline with Tween-80) 97 % of control.

With `S=c1[nH]nc(-c2n[nH]c3ccccc23)o1`, the T/C is 100 % of control under setting [4], 100 % of control under setting [5] and 97 % of control under setting [6].

Take `CC1CN=C(CCc2ccc(NC(=O)c3ccc(C(=O)Nc4ccc(CCC5=NCC(C)N5)cc4)cc3)cc2)N1` (stereo not given): the T/C is 108 % of control (dose: 12.5 mg/kg/injection, schedule: Q01DX005 (ip), vehicle: Klucel (hydroxypropylcellulose) (HPC)); 108 % of control (dose: 25.0 mg/kg/injection, schedule: Q01DX005 (ip), vehicle: Klucel (hydroxypropylcellulose) (HPC)); 160 % of control under setting [9].

For `COCCNC(=S)SCCN(C(C)C)C(C)C`, the T/C reads like this: under setting [4], 104 % of control; under setting [5], 106 % of control.

For the molecule `CCC(=N\N=C(N)N)/C(C)=N\N=C(N)N`, the T/C is, setting by setting: under setting [4], 99 % of control; under setting [5], 96 % of control.
